Measured values taken from patent publication US20240415918A1, “Polypeptide and its use as a CCK receptor agonist/antagonist” (Centre for Regenerative Medicine & Health, Hong Kong …, priority 2021, published 2024).
Where a SMILES comes first, the peptide text is derived from it. [ ]: non-standard residue; d: D form.

Molecular target: T1, CCK-B receptors (CHO-CCK) (Homo sapiens, UniProt P32239)
T1 construct: expressed in transfected cells; host or cells: CHO (CHO-CCK model cells)
T1 sequence (P32239 1-447): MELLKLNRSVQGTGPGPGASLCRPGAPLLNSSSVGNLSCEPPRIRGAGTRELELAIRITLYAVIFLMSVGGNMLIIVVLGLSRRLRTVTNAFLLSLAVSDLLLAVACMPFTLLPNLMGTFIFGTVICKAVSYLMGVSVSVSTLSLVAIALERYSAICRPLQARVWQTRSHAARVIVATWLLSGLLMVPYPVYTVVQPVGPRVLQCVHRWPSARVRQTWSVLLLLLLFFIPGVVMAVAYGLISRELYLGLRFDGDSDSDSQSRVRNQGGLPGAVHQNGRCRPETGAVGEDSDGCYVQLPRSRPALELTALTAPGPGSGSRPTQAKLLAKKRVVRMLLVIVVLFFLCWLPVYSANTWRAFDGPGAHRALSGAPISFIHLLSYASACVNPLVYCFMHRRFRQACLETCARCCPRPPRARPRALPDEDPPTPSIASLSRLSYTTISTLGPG
Test: Calcium flux (Fluo-8) agonist test on CHO-CCK model cells
Assay type: cell-based
Conditions: for EC50: CHO-CCK cells, compound alone; for Agonistic Activity (%) at 10 μM: compound at 10 μM, percentage of signal of 20 nM CCK8 alone
Procedure: • To detect changes in intracellular calcium ion concentration after the compound acts on model cells containing CCK-B receptors (CHO-CCK).
• 1. The compound was formulated to a 10 mM mother liquor with DMSO, and then diluted into a series of 9 concentrations with a 3-fold gradient to form a 1000× stock solution.
2.1 Agonist • The compound stock solution was subjected to 200-fold dilution with HHBS buffer to form a 5× working solution.
• 1. Plate CHO-CCK cells in a 96-well plate with media containing 1% FBS, 30,000 cells/well/100 μL, and incubate overnight at 37° C. • 2. Prepare 1×Fluo-8 analysis buffer: mix 9 mL of HHBS, 1 mL of 10× Pluronic F127 Plus and 20 μL of Fluo-8 thoroughly for later use. • 3. Add Fluo-8 dye working solution to the cell plate, 100 μL/well. First incubate in a 37° C. incubator for 30 min, and then take it out and incubate at room temperature in the dark for 30 min. • 4. In the process of incubating cells, the compounds to be detected were prepared with HHBS. • 5.
The agonism/antagonism EC50 of the compound can be obtained by plotting the fitting curve with the agonism/antagonism percentage as Y-axis and the concentration of the compound as X-axis.

Compound	EC50 (bound in μM) [µM]	Agonistic Activity (%) at 10 μM [%]	EC50 (100% = 20 nM CCK8) [µM]
CSCC[C@H](NC(=O)[C@H](CC(=O)O)NC(=O)[C@@H](N)Cc1ccccc1)C(=O)N[C@@H](Cc1c[nH]c2ccccc12)C(=O)O [HT-1, Phe-Asp-Met-Trp-COOH] (H-FDMW-OH)	> 10		
CSCC[C@H](NC(=O)[C@H](CC(=O)O)NC(=O)[C@H](Cc1ccccc1)NC(C)=O)C(=O)N[C@@H](Cc1c[nH]c2ccccc12)C(=O)O [HT-2, Ac-Phe-Asp-Met-Trp-COOH]	> 10		
CSCC[C@H](NC(=O)[C@H](CC(=O)O)NC(=O)[C@H](Cc1ccccc1)NC(C)=O)C(=O)N[C@@H](Cc1c[nH]c2ccccc12)C(=O)O [HT-3, Ac-Phe-Asp-Met-Trp-NH2]	> 10		
CSCC[C@H](NC(=O)[C@@H](CC(=O)O)NC(=O)[C@H](Cc1ccccc1)NC(C)=O)C(=O)N[C@@H](Cc1c[nH]c2ccccc12)C(=O)O [HT-4, Ac-Phe-D-Asp-Met-Trp-NH2]	> 10		
CSCC[C@@H](NC(=O)[C@H](CC(=O)O)NC(=O)[C@H](Cc1ccccc1)NC(C)=O)C(=O)N[C@@H](Cc1c[nH]c2ccccc12)C(=O)O [HT-5, Ac-Phe-Asp-D-Met-Trp-NH2]	> 10		
CSCC[C@H](NC(=O)[C@H](CC(=O)O)NC(=O)[C@H](Cc1ccccc1)NC(C)=O)C(=O)N[C@H](Cc1c[nH]c2ccccc12)C(N)=O [HT-6, Ac-Phe-Asp-Met-D-Trp-NH2] (Ac-FDM[dW]-NH2)	> 10		
CSCC[C@@H](NC(=O)[C@@H](CC(=O)O)NC(=O)[C@H](N)Cc1ccccc1)C(=O)N[C@H](Cc1c[nH]c2ccccc12)C(=O)O [HT-7, D-Phe-D-Asp-D-Met-D-Trp-COOH] (H-[dF][dD][dM][dW]-OH)	> 10		
CSCC[C@@H](NC(=O)[C@@H](CC(=O)O)NC(=O)[C@@H](Cc1ccccc1)NC(C)=O)C(=O)N[C@H](Cc1c[nH]c2ccccc12)C(N)=O [HT-8, Ac-D-Phe-D-Asp-D-Met-D-Trp-NH2] (Ac-[dF][dD][dM][dW]-NH2)	> 10		
C[S+]([O-])CC[C@H](NC(=O)[C@H](N)Cc1c[nH]c2ccccc12)C(=O)N[C@@H](CC(=O)O)C(=O)N[C@@H](Cc1ccccc1)C(N)=O (stereo partly drawn) [HT-16, D-Trp-Met(O)-Asp-Phe-NH2]		19.11	
COC(=O)C[C@H](NC(=O)[C@H](CCSC)NC(=O)[C@H](N)Cc1c[nH]c2ccccc12)C(=O)N[C@@H](Cc1ccccc1)C(N)=O [HT-18, D-Trp-Met-Asp(OMe)-Phe-NH2]		7.59	
COC(=O)C[C@H](NC(=O)[C@H](CC[S+](C)[O-])NC(=O)[C@H](N)Cc1c[nH]c2ccccc12)C(=O)N[C@@H](Cc1ccccc1)C(N)=O (stereo partly drawn) [HT-20, D-Trp-Met(O)-Asp(OMe)-Phe-NH2]		−9.73	
COC(=O)C[C@H](NC(=O)[C@H](CCS(C)(=O)=O)NC(=O)[C@H](N)Cc1c[nH]c2ccccc12)C(=O)N[C@@H](Cc1ccccc1)C(N)=O [HT-22, D-Trp-Met(O2)-Asp(OMe)-Phe-NH2]		0.98	
CSCC[C@H](NC(=O)[C@H](N)Cc1c[nH]c2ccccc12)C(=O)N[C@@H](CC(=O)O)C(=O)N[C@@H](Cc1ccc(N=[N+]=[N-])cc1)C(N)=O [HT-31, D-Trp-Met-Asp-Phe(4-N3)-NH2]		6.07	
C[S+]([O-])CC[C@H](NC(=O)[C@H](N)Cc1c[nH]c2ccccc12)C(=O)N[C@@H](CC(=O)O)C(=O)N[C@@H](Cc1ccccc1[N+](=O)[O-])C(N)=O (stereo partly drawn) [HT-41, D-Trp-Met(O)-Asp-Phe(2-NO2)-NH2]		−11.17	
C[S+]([O-])CC[C@H](NC(=O)[C@H](N)Cc1c[nH]c2ccccc12)C(=O)N[C@@H](CC(=O)O)C(=O)N[C@@H](Cc1ccc(N=[N+]=[N-])cc1)C(N)=O (stereo partly drawn) [HT-48, D-Trp-Met(O)-Asp-Phe(4-N3)-NH2]		17.23	
C[S+]([O-])CC[C@H](NC(=O)[C@H](N)Cc1c[nH]c2ccccc12)C(=O)N[C@@H](CC(=O)O)C(=O)N[C@@H](Cc1ccc(C#N)cc1)C(N)=O (stereo partly drawn) [HT-49, D-Trp-Met(O)-Asp-Phe(4-CN)-NH2]		1.03	
C[S+]([O-])CC[C@H](NC(=O)[C@H](N)Cc1c[nH]c2ccccc12)C(=O)N[C@@H](CC(=O)O)C(=O)N[C@@H](Cc1ccc([N+](=O)[O-])cc1)C(N)=O (stereo partly drawn) [HT-50, D-Trp-Met(O)-Asp-Phe(4-NO2)-NH2]		11.85	
C[S+]([O-])CC[C@H](NC(=O)[C@H](N)Cc1c[nH]c2ccccc12)C(=O)N[C@@H](CC(=O)O)C(=O)N[C@@H](Cc1cc(F)cc(F)c1)C(N)=O (stereo partly drawn) [HT-56, D-Trp-Met(O)-Asp-Phe(3,5-DiF)-NH2]		43.98	
C[S+]([O-])CC[C@H](NC(=O)[C@H](N)Cc1c[nH]c2ccccc12)C(=O)N[C@@H](CC(=O)O)C(=O)N[C@@H](Cc1cc(F)c(F)c(F)c1)C(N)=O (stereo partly drawn) [HT-57, D-Trp-Met(O)-Asp-Phe(3,4,5-TriF)-NH2]		56.81	6.79

Results, then the compound that gave them:

EC50 (bound in μM) [µM]	Agonistic Activity (%) at 10 μM [%]	EC50 (100% = 20 nM CCK8) [µM]	Compound
	19.12		CS(=O)(=O)CC[C@H](NC(=O)[C@H](N)Cc1c[nH]c2ccccc12)C(=O)N[C@@H](CC(=O)O)C(=O)N[C@@H](Cc1ccccc1)C(N)=O [HT-17, D-Trp-Met(O2)-Asp-Phe-NH2]
	26.99		Cc1ccc(C[C@H](NC(=O)[C@H](CC(=O)O)NC(=O)[C@H](CC[S+](C)[O-])NC(=O)[C@H](N)Cc2c[nH]c3ccccc23)C(N)=O)cc1 (stereo partly drawn) [HT-47, D-Trp-Met(O)-Asp-Phe(4-Me)-NH2]
	17.18		C[S+]([O-])CC[C@H](NC(=O)[C@H](N)Cc1c[nH]c2ccccc12)C(=O)N[C@@H](CC(=O)O)C(=O)N[C@@H](Cc1ccc(Br)cc1)C(N)=O (stereo partly drawn) [HT-51, D-Trp-Met(O)-Asp-Phe(4-Br)-NH2]
	15.71		C[S+]([O-])CC[C@H](NC(=O)[C@H](N)Cc1c[nH]c2ccccc12)C(=O)N[C@@H](CC(=O)O)C(=O)N[C@@H](Cc1ccc(Cl)cc1)C(N)=O (stereo partly drawn) [HT-52, D-Trp-Met(O)-Asp-Phe(4-Cl)-NH2]
	3.14		C[S+]([O-])CC[C@H](NC(=O)[C@H](N)Cc1c[nH]c2ccccc12)C(=O)N[C@@H](CC(=O)O)C(=O)N[C@@H](Cc1ccc(I)cc1)C(N)=O (stereo partly drawn) [HT-54, D-Trp-Met(O)-Asp-Phe(4-I)-NH2]
	23.63		CS(=O)(=O)CC[C@H](NC(=O)[C@H](N)Cc1c[nH]c2ccccc12)C(=O)N[C@@H](CC(=O)O)C(=O)N[C@@H](Cc1ccccc1[N+](=O)[O-])C(N)=O [HT-58, D-Trp-Met(O2)-Asp-Phe(2-NO2)-NH2]
	4.26	4.37	CS(=O)(=O)CC[C@H](NC(=O)[C@H](N)Cc1c[nH]c2ccccc12)C(=O)N[C@@H](CC(=O)O)C(=O)N[C@@H](Cc1cccc(I)c1)C(N)=O [HT-62, D-Trp-Met(O2)-Asp-Phe(3-I)-NH2]
	17.43		Cc1ccc(C[C@H](NC(=O)[C@H](CC(=O)O)NC(=O)[C@H](CCS(C)(=O)=O)NC(=O)[C@H](N)Cc2c[nH]c3ccccc23)C(N)=O)cc1 [HT-64, D-Trp-Met(O2)-Asp-Phe(4-Me)-NH2]
	0.33		CS(=O)(=O)CC[C@H](NC(=O)[C@H](N)Cc1c[nH]c2ccccc12)C(=O)N[C@@H](CC(=O)O)C(=O)N[C@@H](Cc1ccc(C#N)cc1)C(N)=O [HT-66, D-Trp-Met(O2)-Asp-Phe(4-CN)-NH2]
	−1.49		CS(=O)(=O)CC[C@H](NC(=O)[C@H](N)Cc1c[nH]c2ccccc12)C(=O)N[C@@H](CC(=O)O)C(=O)N[C@@H](Cc1ccc([N+](=O)[O-])cc1)C(N)=O [HT-67, D-Trp-Met(O2)-Asp-Phe(4-NO2)-NH2]
	15.61		CS(=O)(=O)CC[C@H](NC(=O)[C@H](N)Cc1c[nH]c2ccccc12)C(=O)N[C@@H](CC(=O)O)C(=O)N[C@@H](Cc1ccc(Br)cc1)C(N)=O [HT-68, D-Trp-Met(O2)-Asp-Phe(4-Br)-NH2]
	20.02		CS(=O)(=O)CC[C@H](NC(=O)[C@H](N)Cc1c[nH]c2ccccc12)C(=O)N[C@@H](CC(=O)O)C(=O)N[C@@H](Cc1ccc(Cl)cc1)C(N)=O [HT-69, D-Trp-Met(O2)-Asp-Phe(4-Cl)-NH2]
	35.31	11.4	CS(=O)(=O)CC[C@H](NC(=O)[C@H](N)Cc1c[nH]c2ccccc12)C(=O)N[C@@H](CC(=O)O)C(=O)N[C@@H](Cc1ccc(F)cc1)C(N)=O [HT-70, D-Trp-Met(O2)-Asp-Phe(4-F)-NH2]
	13.13		CS(=O)(=O)CC[C@H](NC(=O)[C@H](N)Cc1c[nH]c2ccccc12)C(=O)N[C@@H](CC(=O)O)C(=O)N[C@@H](Cc1ccc(I)cc1)C(N)=O [HT-71, D-Trp-Met(O2)-Asp-Phe(4-I)-NH2]
